Publication PMC8573827, “Zinc protoporphyrin binding to telomerase complexes and inhibition of telomerase activity” (Pharmacology Research & Perspectives, 2021)

What was measured:
Hek293 cells [1] = assay: MTT cell proliferation/viability assay, Hek293; format: cell-based, human; conditions: Hek293, 10 µM MPP, 48 h
Method: (§1) MPPs were tested for effects on cell proliferation and viability using MTT (3‐(4,5‐dimethylthiazol‐2‐yl)‐2,5‐diphenyltetrazolium bromide) dye conversion assay (Cell Titer 96, Promega) as we described[22] with some modifications. Cells were plated into 96 well plates and allowed to attach overnight. MPPs were added to the cultures and then incubated for the times indicated. At assay time, MTT reagent was added and absorbance measured at 570 nm. Controls included buffer blanks containing MPP because of background absorbances reported for MPPs by us[22] and others.[23] The formula used for determination of viable cells relative to controls was: %viablecells=(abssample‐absblank)/(absconrtrol‐absblank)×100

Hek293 cells [2] = assay: DNA synthesis, 3H-thymidine incorporation, Hek293; format: cell-based, human; conditions: Hek293, 10 µM MPP, 24–72 h
Method: (§2) Semi‐quantitative differences in DNA synthesis were determined by measuring ^3H‐thymidine uptake into whole cells in log phase growth. At indicated time points, cell cultures were washed with serum‐free, thymidine deficient medium, then incubated with fresh medium containing 1 μCi/ml of ^3H‐thymidine for two hours at 37°C. Cultures were washed twice with PBS while attached to dishes, then lysed with 0.5 M NaOH and the relative amount of ^3H‐thymidine quantified by scintillation counting.

[3] = tested on: high molecular weight complexes containing telomerase; assay: Fluorescent labelling of cellular lysate complexes on non-denaturing 0.8% agarose gels; format: binding, human; conditions: Huh7 lysates, fluorescence visualization
Method: 0.8% Agarose gels were run in Tris‐Borate‐EDTA buffer using standard slab gels as described for high molecular weight complexes.[27] Cell lysates were produced by lysing Hek293 and Huh7 cells in NP40 buffer (25 mM HEPES‐KOH, 150 mM KCl, 1.5mM MgCl2, 10% glycerol, 0.5% NP40, 5 mM 2ME, pH 7.5 supplemented with protease inhibitors) for 30 min on ice. Extracts were clarified by centrifugation for 16 000 g for 10 min. The protein concentration was determined by Bradford assay. The indicated amounts of proteins were treated with different amounts of ZnPP for 2 h on ice, and then separated on 0.8% Agarose gels prepared with 0.5xTris‐Borate‐EDTA (TBE) buffer. The gels were run at 100 V for 2 h at 4 °C in 0.5x TBE buffer. […] No antibody and normal rabbit IgG (sc‐2027, Santa Cruz Biotechnology) were included as controls. The IP products were treated with ZnPP and electrophoresed as above. Free ZnPP and ZnPP bound to large complexes were visualized using a wide‐wavelength UV lightbox or with red fluorescence using excitation (EX) 608–632 nm and emission (EM) 675–720 nm. Thyroglobulin (670 kD), a heavy MW marker, was run in parallel lanes and visualized with Coomassie Blue staining or fluorescence to size the complexes. In some cases, cell lysates or IP were incubated with RNase A (Life Technologies, NY); or DNase 1 (Qiagen, CA) 100 µg/ml for 1 h at 4 °C prior to electrophoresis.

[4] = tested on: TERT, β-catenin, and cyclin D1 expression; assay: Western blot of proliferative proteins in Huh7 cells; format: cell-based, human; conditions: Huh7, 48 h
Method: For SDS ‐PAGE, cellular lysates, and protein preparations such as IP were dissolved in Laemmli buffer, boiled for 1 min and separated on denaturing SDS gels as described.[28] After electrophoretic transfer of separated proteins to nitrocellulose sheets, western blot immunoassays employed enhanced chemiluminescence for signal detection (ECL^TM Prime, Amersham).[28]

[5] = tested on: TERT transfected U2OS cells; assay: MTT viability assay in U2OS cells transfected with human TERT; format: cell-based; conditions: U2OS transfected with pCI neo-hEST2, ZnPP 48 h
Method: Lipofectamine^T ^M 2000 (ThermoFisher) was used for all transfections and closely followed the manufacturer's protocol. For TERT overexpression the catalytically active TERT plasmid pCI neo‐hEST2, a gift from Dr. Robert Weinberg (Addgene plasmid # 1781)[19] was used. Telomerase RNA component (TERC) plasmid (pBS U3‐hTR‐500) was also obtained from Addgene (plasmid # 28170), a gift from Dr. Kathleen Collins.[20], [21]
as §1

Huh7 cells [6] = assay: Annexin V apoptosis assay, Huh7; format: cell-based, human; conditions: Huh7, 10 µM, 48 h
Method: (§3) For detection of MPP apoptotic effects, cells were treated with MPPs (0, 2.5, 5 and 10 µM) for 48 h and assayed using PE Annexin V Apoptosis Detection Kit (Cat. No. 559763, BD Biosciences) as recommended by the manufacturer.

U2OS cells [7] = assay: MTT cell proliferation/viability assay, telomerase negative U2OS; format: cell-based, human; conditions: 48 h
Method: as §1

U2OS cells [8] = assay: Annexin V apoptosis assay, U2OS; format: cell-based, human; conditions: 48 h
Method: as §3

Huh7 cells [9] = assay: DNA synthesis, 3H-thymidine incorporation, Huh7; format: cell-based, human; conditions: Huh7, 10 µM MPP, 24–72 h
Method: as §2

Hek293 cells [10] = assay: Annexin V apoptosis assay, Hek293; format: cell-based, human; conditions: Hek293, 10 µM, 48 h
Method: as §3

Huh7 cells [11] = assay: MTT cell proliferation/viability assay, Huh7; format: cell-based, human; conditions: Huh7, 10 µM MPP, 48 h
Method: as §1

Taq DNA polymerase = target: T1, Taq DNA polymerase (Thermus aquaticus, UniProt P19821); assay: Taq polymerase inhibition test, MPP added after the telomerase extension step of TRAP; format: biochemical; conditions: TRAP, MPP added for the amplification steps only
T1 construct: purchased Perkin‐Elmer Cetus, Norwalk, CT
Method: For TRAP assay, a Quantitative Telomerase Detection Kit (US Biomax, Inc) was used to assay cellular lysates or TERT immunoprecipitates (IP) according to the manufacturer's directions. Relative telomerase activity was derived from a standard curve of reference samples and data were analyzed using relative fluorescence units as compared to controls. In some cases, telomerase reaction products were visualized and quantified with TRAPeze system (EMD/Millipore). After separation of the DNA products using 10% non‐denaturing PAGE and SYBR fluorescence labeling [1x SYBR safe DNA gel stain (Invitrogen)], gel bands were imaged with iBright 1500 (Invitrogen). The intensity of the sample's TRAP ladder and internal control was first measured using GelAnalyzer [GelAnalyzer 19.1 (www.gelanalyzer.com )] as recommended. Then, the relative telomerase activity was determined by the ratio of the intensity of the sample's TRAP ladder (telomerase products, TP) to that of the internal control (IC) band.
Because of concerns that some quadruplex ligands inhibit Taq DNA polymerase in addition to telomerase, we assayed MPP inhibition at both steps of the TRAP procedure with a strategy similar to that of others.[36] Using equivalent extracts but separate assays, MPP was either included in the telomerase RT extension step or the extension step was conducted without MPP and then MPP added only for the amplification steps with Taq DNA polymerase. To avoid further potential errors introduced by Real‐time quantification, TRAP products were labeled with SYBR green, visualized on denaturing gels, and each lane was quantified by density measurements as described in the Methods. The latter step also ruled out the possibility that decreases in activity were artifactual due to fluorescence signal quenching by some MPPs.[37] […] All three MPPs had minimal effects on Taq polymerase […] and the slight inhibition of Taq polymerase seen for ZnPP was not directly concentration‐dependent.
Enzymatic extracts were prepared from semi-confluent Huh7 cells and aliquots were assayed in triplicate using TRAP assay. CoPP was added to RT-PCR reactions either before or after the RT telomere elongation step to test whether it inhibited Taq polymerase. Visualization of amplified telomeric products was on 12% denaturing gels using SYBR fluorescence labelling (upper panels). Quantification was with densitometry as described in Methods and plot shown (lower panel). Plotted points represent the mean +/- SD with n =3. (IC)= internal Taq polymerase control.

T1 sequence (P19821 whole entry): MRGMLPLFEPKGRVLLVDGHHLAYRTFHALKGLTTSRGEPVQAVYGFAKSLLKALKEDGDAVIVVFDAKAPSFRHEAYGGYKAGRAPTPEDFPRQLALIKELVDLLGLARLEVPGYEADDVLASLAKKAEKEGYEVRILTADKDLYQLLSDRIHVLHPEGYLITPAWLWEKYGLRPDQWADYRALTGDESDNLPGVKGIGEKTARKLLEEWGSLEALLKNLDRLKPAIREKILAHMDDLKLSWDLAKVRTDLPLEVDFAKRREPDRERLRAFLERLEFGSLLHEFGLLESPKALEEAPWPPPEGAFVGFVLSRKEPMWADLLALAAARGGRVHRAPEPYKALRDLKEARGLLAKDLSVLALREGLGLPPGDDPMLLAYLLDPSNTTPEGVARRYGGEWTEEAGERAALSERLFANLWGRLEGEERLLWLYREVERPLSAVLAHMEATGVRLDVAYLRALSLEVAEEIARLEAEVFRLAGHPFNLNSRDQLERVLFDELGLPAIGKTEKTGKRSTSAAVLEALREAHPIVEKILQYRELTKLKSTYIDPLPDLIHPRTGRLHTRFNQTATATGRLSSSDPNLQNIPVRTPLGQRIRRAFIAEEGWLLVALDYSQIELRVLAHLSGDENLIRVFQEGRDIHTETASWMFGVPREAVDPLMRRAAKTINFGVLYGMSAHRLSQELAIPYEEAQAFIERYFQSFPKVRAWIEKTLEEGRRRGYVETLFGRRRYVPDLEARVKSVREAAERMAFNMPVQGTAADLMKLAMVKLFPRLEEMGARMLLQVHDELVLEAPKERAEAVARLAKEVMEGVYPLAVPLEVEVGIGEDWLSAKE

Question: How did the “Depression of cellular proliferation relative to vehicle only controls” value (Hek293 cells [1]) turn out when C=CC1=C(C)c2cc3[n-]c(cc4nc(cc5[n-]c(cc1n2)c(C)c5C=C)C(C)=C4CCC(=O)O)c(CCC(=O)O)c3C.[Zn+2] [ZnPP, zinc protoporphyrin] was run?
Answer: The value was “greater than 50%”.

Question: What about the “Effect on DNA synthesis (3H-thymidine incorporation)” value (Hek293 cells [2]) of the same molecule?
Answer: Its value is “severely attenuated DNA synthesis”.

Question: What about the “Labelling/binding of cellular complexes on agarose gels” value [3] of the same molecule?
Answer: The value was “bound to high molecular weight complexes in a concentration dependent manner”.

Question: And the “Effect on expression of TERT, β-catenin and cyclin D1 (western blot)” value [4]?
Answer: The value was “nearly eliminated”.

Question: What about the “Sensitivity of viability after TERT transfection” value [5] of the same molecule?
Answer: Its value is “restored ZnPP sensitivity”.

Question: And the Apoptosis (Huh7 cells [6])?
Answer: The Apoptosis was about 50%.

Question: And the “Effect on proliferation in telomerase negative cells” value (U2OS cells [7])?
Answer: The value was “only minor effects on proliferation”.

Question: What about the “Effect on apoptosis in telomerase negative cells” value (U2OS cells [8]) of the same molecule?
Answer: The value was “failed to have an increased effect on apoptosis”.

Question: What about the “Effect on DNA synthesis (3H-thymidine incorporation)” value (Huh7 cells [9]) of the same molecule?
Answer: Its value is “severely attenuated DNA synthesis”.

Question: And the Apoptosis (Hek293 cells [10])?
Answer: The Apoptosis was about 50%.

Question: And the “Depression of cellular proliferation relative to vehicle only controls” value (Huh7 cells [11])?
Answer: The value was “greater than 50%”.

Question: And the “Effect on Taq polymerase” value (Taq DNA polymerase)?
Answer: The value was “minimal inhibition”.
